In patent US20240294533A1, “2-(HET)ARYL-SUBSTITUTED CONDENSED HETEROCYCLE DERIVATIVES AS PEST CONTROL AGENTS” (Bayer Aktiengesellschaft, priority 2021, published 2024):

How the values were obtained:
Type in all cases: in vivo
Musca domestica = Musca domestica test; conditions: 100 ppm, adult houseflies, after 2 days
Experimental: Musca domestica Test Solvent: dimethyl sulfoxide An appropriate active ingredient formulation is produced by mixing 10 mg of active ingredient with 0.5 ml of dimethyl sulfoxide and diluting the concentrate with water to the desired concentration. Vessels containing a sponge treated with sugar solution and the desired concentration of active compound formulation are populated with 10 adult houseflies (Musca domestica). After 2 days, the kill rate in % is determined relative to the untreated control. 100% means that all of the flies have been killed; 0% means that none of the flies have been killed.

Diabrotica balteata = Diabrotica balteata drench test; conditions: 20 ppm, soil drench, maize, after 8 days
Excerpt: Diabrotica balteata—Drench Test Solvent: 7 parts by weight of dimethylformamide Emulsifier: 2 parts by weight of alkylaryl polyglycol ether An appropriate active ingredient formulation is produced by mixing 1 part by weight of active ingredient with the specified amounts of solvent and emulsifier, and diluting the concentrate to the desired concentration with water, it being necessary to take account of the volume of soil which is drenched. It should be ensured that a concentration of 40 ppm of emulsifier in the soil is not exceeded. Further test concentrations are produced by diluting with water. 5 […] (Zea mays) in each case are sown into pots filled with earth, and the next day the pots are watered with the active ingredient preparation of the desired concentration. After one day, about 25 L2 larvae of the banded cucumber beetle (Diabrotica balteata) are added. After 8 days, efficacy in % is determined. 100% means that all 5 plants have germinated and grown; 0% means that none of the plants has emerged.

Ctenocephalides felis = Ctenocephalides felis oral test; conditions: 100 ppm, oral via cattle blood, after 2 days
Experimental: Ctenocephalides felis—Oral Test Solvent: dimethyl sulfoxide An appropriate active ingredient formulation is produced by mixing 10 mg of active ingredient with 0.5 ml of dimethyl sulfoxide. Dilution with citrated cattle blood gives the desired concentration. About 20 unfed adult cat fleas (Ctenocephalides felis) are placed into a chamber which is closed at the top and bottom with gauze. Onto the chamber is placed a metal cylinder with its bottom end closed with parafilm. The cylinder contains the blood/active ingredient formulation, which can be imbibed by the fleas through the parafilm membrane. The cylinder is heated to 37° C., while the flea chambers are kept at room temperature. After 2 days, the kill rate in % is determined relative to the untreated control. 100% means that all of the fleas have been killed; 0% means that none of the fleas have been killed.

CCS(=O)(=O)c1ccc(-n2ncn(-c3ccc(Cl)cc3)c2=O)nc1-c1nc2cc(C(F)(F)C(F)(F)F)cnc2n1C [Example I-23]
100%: efficacy (kill rate) (Musca domestica) | efficacy (Diabrotica balteata) | efficacy (kill rate) (Ctenocephalides felis)
